Experimental data reported in patent publication US20100267672A1, “NOVEL COMPOUNDS OF REVERSE-TURN MIMETICS, METHOD FOR MANUFACTURING THE SAME AND USE THEREOF” (Choongwae Pharma Corporation, priority 2009, published 2010).

Assays:
[1] = tested on: human AML cell line, MV4-11; experiment: Anticancer activity in acute myeloid leukemia (AML) animal model; type: in vivo, Balb/C nude mice; settings: intravenously once a day, five times per week for two weeks, MV4-11 implanted nude mice, Day 12 vs Day 1; for inhibition in vivo at 25 mg/kg: Mus musculus, iv, 288 h, read-out: Tumor growth Inhibition Rate
Procedure: Test materials were prepared in the form of prodrugs to increase the solubility of compounds of interest. A phosphate functional group which may be either a monosodium or disodium form was introduced as a prodrug substituent.
The human AML cell line, MV4-11, was purchased (ATCC, U.S.A.) and cultured at 37° C. under a 5% CO2 condition in Iscove's Modified Dulbecco's Medium (GIBCO, cat# 21056) supplemented with 10% fetal bovine serum (GIBCO, cat# 25030-081). Female Balb/C nude mice (OrientBio, Sungnam-city, Korea), 5-6 weeks old, were acclimated to the breeding room. Using a sterilized syringe, a mixture of 1:1 of MV4-11 cells: matrigel (v/v) was implanted in an amount of 5×10^6/mouse beneath the axilla of each of the mice. When tumor was formed 2 weeks after the implantation, the mice were divided into five (5) groups in such a manner that a minimum deviation with regard to tumor size and body weight was obtained among the groups. The test materials were dissolved in physiological saline and intravenously injected at a dose of 10 ml/kg once a day and five times per week for two weeks (administration days of test materials, D1˜D5, D8˜D12). For a control, only physiological saline was used. The tumor size was determined as calculated by the following equation: Long Axis×Short Axis×Short Axis/2. The Long and Short Axes of the tumor were measured in length using a digital caliper (Mitsutoyo, Japan). The anticancer activity of the test materials was numerated according to the following equation.
Tumor growth Inhibition Rate A (%)=100×[1−(b−a)/(Ref b−Ref a)] […]
a=mean tumor size of drug-administered group on Day 1 b=mean tumor size of drug-administered group on Day 12
Ref a=mean tumor size of the control on Day 1
Ref b=mean tumor size of the control on Day 12
When the mean tumor size of the drug-administered group on Day 12 was smaller than that of just before the administration of the test materials, it is indicated as Regression (>100%).

hERG = target: T1, hERG (Homo sapiens, UniProt Q12809); experiment: In vitro cardiotoxicity assay: inhibitory activity against hERG (whole-cell patch clamp); type: cell-based; settings: hERG-transfected HEK293 cells, tail current of outward hERG K+ currents; read-out: Cardiotoxicity (hERG Inhibiting Activity Assay, IC50)
T1 construct: expressed in transfected cells; host or cells: HEK293
Procedure: HEK293 was transfected with hERG (human Ether-à-go-go Related Gene) cDNA for 48 hrs using Lipofectamine 2000 (Invitrogen, USA). The transfected HEK293 cells were cultured in Modified Dulbecco's Medium (MEM, Gibco, 1 L) supplemented with 10% FBS, sodium pyruvate (10 ml), penicillin/streptomycin (10 ml) and Zeocin (100 μg/ml, Invitrogen) at 37° C. under 5% CO2. After being detached from incubation vessels by trypsinization, the HEK293 cells were placed in a chamber for patch clamp recording. A whole-cell patch clamp method was used to record hERG K+ currents in HEK293 cells using the following intra/extracellular solutions.
The membrane potential was depolarized from −80 mV to +20 mV for 1,000 ms in a whole-cell patch clamp mode and then repolarized to −40 mV for 1,000 ms, during which the tail current of outward hERG K+ currents was recorded. In this regard, the concentrations of the compounds that are required for 50% inhibition of the current were represented as IC50.
The risk of cardiotoxicity has been raised in many drugs. Some of them were withdrawn from the market because they caused a sudden death due to the cardiotoxicity thereof. The cardiotoxicity of drugs is associated with the extension of QT intervals on electrocardiograms. Particularly, most of the drugs extending QT intervals are known to inhibit IKr channels (Bernard Fermini and Anthony A. Fossa, Nature Reviews Drug Discovery, 2003, 2, 439-447). […] In this example, the risk of cardiotoxicity was evaluated using human hERG channel-expressing mammal cells, which are internationally recognized as a system (ICH guideline, S7B, Step 4, 12, May, 2005). Although pharmaceutical activity of drug should be taken into consideration, a drug is evaluated as having a low cardiotoxicity risk when IC50 thereof is 10 μM or higher. […] Having higher IC50, compound A1 was evaluated to be safer than compound A, and compounds B1, B2 and B3 than compound B.

[2] = pH of monosodium and disodium prodrug forms; type: physicochemical; settings: prodrug form as a composition for I.V. injection
Procedure: (§1) This prodrug was prepared by adding sodium hydroxide to P2, which was synthesized according to Example 9. Both monosodium and disodium forms of the prodrug show a solubility of up to 400 mg/ml. Both forms have advantageous properties as a composition for I.V. injection in that a monosodium form has pH 4.45 and a disodium form has pH of 7.62.
In the graph, the horizontal axis represents the added amounts of sodium hydroxide. In the graph, the first and second points of inflection correspond to the time of production of monosodium and disodium forms, respectively.

[3] = Solubility of monosodium and disodium prodrug forms; type: physicochemical; settings: aqueous medium; prodrug prepared by adding sodium hydroxide to P2
Procedure: The compounds were prepared in the form of prodrugs to improve the solubility thereof. Phosphate may be introduced as a possible prodrug substituent which can exist as in either monosodiumphosphate or disodiumphosphate form.
as §1

T1 sequence (Q12809 whole entry): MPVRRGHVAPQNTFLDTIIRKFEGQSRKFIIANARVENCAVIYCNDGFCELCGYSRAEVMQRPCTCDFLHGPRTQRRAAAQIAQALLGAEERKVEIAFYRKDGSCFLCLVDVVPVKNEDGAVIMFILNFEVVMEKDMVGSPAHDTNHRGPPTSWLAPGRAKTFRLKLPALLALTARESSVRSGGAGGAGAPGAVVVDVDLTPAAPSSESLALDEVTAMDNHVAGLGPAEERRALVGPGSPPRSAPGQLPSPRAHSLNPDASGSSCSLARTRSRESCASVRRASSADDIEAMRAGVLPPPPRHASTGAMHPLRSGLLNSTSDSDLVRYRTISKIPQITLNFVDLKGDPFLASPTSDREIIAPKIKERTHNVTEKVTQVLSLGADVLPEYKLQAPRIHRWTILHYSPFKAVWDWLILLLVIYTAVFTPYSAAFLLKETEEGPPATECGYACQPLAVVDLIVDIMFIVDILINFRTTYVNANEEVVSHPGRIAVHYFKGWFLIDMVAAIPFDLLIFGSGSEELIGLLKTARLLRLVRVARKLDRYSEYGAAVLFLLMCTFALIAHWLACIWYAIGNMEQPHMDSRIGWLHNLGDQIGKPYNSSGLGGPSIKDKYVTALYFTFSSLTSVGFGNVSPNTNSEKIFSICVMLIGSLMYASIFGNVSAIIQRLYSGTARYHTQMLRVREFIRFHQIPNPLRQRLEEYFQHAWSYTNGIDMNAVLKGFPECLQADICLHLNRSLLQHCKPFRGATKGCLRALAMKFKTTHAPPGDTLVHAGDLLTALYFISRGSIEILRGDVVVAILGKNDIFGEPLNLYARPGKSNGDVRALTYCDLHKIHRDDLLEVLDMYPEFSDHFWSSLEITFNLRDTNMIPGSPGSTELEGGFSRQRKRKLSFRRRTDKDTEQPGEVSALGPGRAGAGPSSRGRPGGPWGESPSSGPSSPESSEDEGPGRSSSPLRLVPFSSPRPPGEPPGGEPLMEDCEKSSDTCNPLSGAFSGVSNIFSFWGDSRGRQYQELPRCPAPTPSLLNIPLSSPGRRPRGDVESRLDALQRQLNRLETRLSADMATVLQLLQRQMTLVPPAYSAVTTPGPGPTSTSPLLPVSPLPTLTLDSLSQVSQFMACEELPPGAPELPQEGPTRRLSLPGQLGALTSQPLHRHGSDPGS

Question: With `C=CCN1CC(=O)N2[C@@H](Cc3ccc(OP(=O)(O)O)cc3)C(=O)N(Cc3cccc4c(C(=O)C5CC5)cn(C)c34)C[C@@H]2N1C(=O)NCc1ccccc1` [Compound C1] as the compound, how does the inhibition in vivo at 25 mg/kg ([1]; dose 25 mg/kg) read?
Answer: > 100%

Question: For `C=CCN1CC(=O)N2[C@@H](Cc3ccc(OP(=O)(O)O)cc3)C(=O)N(Cc3cccc4c(C(=O)C5CC5)cn(CCCC)c34)C[C@@H]2N1C(=O)NCc1ccccc1` [Compound C3], which inhibition in vivo at 25 mg/kg ([1]; dose 25 mg/kg) is on record?
Answer: 70%

Question: Which results are given for `C=CCN1CC(=O)N2[C@@H](Cc3ccc(OP(=O)(O)O)cc3)C(=O)N(Cc3cccc4c(C(C)=O)c[nH]c34)C[C@@H]2N1C(=O)NCc1ccccc1` [Compound A]?
Answer: IC50 (hERG): 14 µM; inhibition in vivo at 25 mg/kg ([1]; dose 25 mg/kg): 61%

Question: With `C=CCN1CC(=O)N2[C@@H](Cc3ccc(OP(=O)(O)O)cc3)C(=O)N(Cc3cccc4c(C(=O)CC(C)(C)C)cn(CCCCCC)c34)C[C@@H]2N1C(=O)NCc1ccccc1` [Compound B3] as the compound, how does the IC50 (hERG) read?
Answer: 20 µM

Question: What about the inhibition in vivo at 25 mg/kg ([1]; dose 25 mg/kg) of the same compound?
Answer: 80%

Question: With `C=CCN1CC(=O)N2[C@@H](Cc3ccc(OP(=O)(O)O)cc3)C(=O)N(Cc3cccc4c(C(=O)CC)cn(C)c34)C[C@@H]2N1C(=O)NCc1ccccc1` [Compound A1] as the compound, how does the IC50 (hERG) read?
Answer: 80 µM

Question: And the inhibition in vivo at 25 mg/kg ([1]; dose 25 mg/kg)?
Answer: > 100%

Question: For `C=CCN1CC(=O)N2[C@@H](Cc3ccc(OP(=O)(O)O)cc3)C(=O)N(Cc3cccc4c(C(=O)CC(C)(C)C)cn(C)c34)C[C@@H]2N1C(=O)NCc1ccccc1` [Compound B2], which IC50 (hERG) is on record?
Answer: 25 µM

Question: What about the inhibition in vivo at 25 mg/kg ([1]; dose 25 mg/kg) of the same compound?
Answer: > 100%

Question: With `C=CCN1CC(=O)N2[C@@H](Cc3ccc(OP(=O)([O-])[O-])cc3)C(=O)N(Cc3cccc4c(C(C)=O)cn(C)c34)C[C@@H]2N1C(=O)NCc1ccccc1.[Na+].[Na+]` [disodium form] as the compound, how does the pH [2] read?
Answer: 7.62

Question: And the solubility [3]?
Answer: ≤ 400 mg/mL

Question: Which results are given for `C=CCN1CC(=O)N2[C@@H](Cc3ccc(OP(=O)(O)O)cc3)C(=O)N(Cc3cccc4c(C(=O)CC(C)(C)C)c[nH]c34)C[C@@H]2N1C(=O)NCc1ccccc1` [Compound B]?
Answer: IC50 (hERG): 1.6 µM; inhibition in vivo at 25 mg/kg ([1]; dose 25 mg/kg): 49%

Question: Which results are given for `C=CCN1CC(=O)N2[C@@H](Cc3ccc(OP(=O)([O-])O)cc3)C(=O)N(Cc3cccc4c(C(C)=O)cn(C)c34)C[C@@H]2N1C(=O)NCc1ccccc1.[Na+]` [monosodium form, Sodium 4-(((6S,9AS)-1-(benzylcarbamoyl)-8-((3-acetyl-1-methyl-1H-indol-7-yl)methyl)-2-allyl-octahydro-4,7-dioxo-1H-pyrazino[2,1-C][1,2,4]triazin-6-yl)methyl)phenyl hydrogenphosphate]?
Answer: pH [2]: 4.45; solubility [3]: ≤ 400 mg/mL

Question: For `Nc1ccn([C@@H]2O[C@H](CO)[C@@H](O)[C@@H]2O)c(=O)n1` [Ara-C, reference compound], which “Tumor growth Inhibition Rate” value ([1]; dose 25 mg/kg, 25 mg/kg) is on record?
Answer: 66%

Question: What about the “Tumor growth Inhibition Rate” value ([1]; dose 50 mg/kg) of the same compound?
Answer: 77%

Question: What does the source list for `C=CCN1CC(=O)N2[C@@H](Cc3ccc(OP(=O)(O)O)cc3)C(=O)N(Cc3cccc4c(C(=O)CC(C)(C)C)cn(CCC)c34)C[C@@H]2N1C(=O)NCc1ccccc1` [Compound B1]?
Answer: IC50 (hERG): 18 µM; inhibition in vivo at 25 mg/kg ([1]; dose 25 mg/kg): > 100%

Question: Which inhibition in vivo at 25 mg/kg ([1]; dose 25 mg/kg) does the source give for `C=CCN1CC(=O)N2[C@@H](Cc3ccc(OP(=O)(O)O)cc3)C(=O)N(Cc3cccc4c(C(=O)C5CC5)c[nH]c34)C[C@@H]2N1C(=O)NCc1ccccc1` [Compound C] here?
Answer: 25%

Question: Which inhibition in vivo at 25 mg/kg ([1]; dose 25 mg/kg) does the source give for `C=CCN1CC(=O)N2[C@@H](Cc3ccc(OP(=O)(O)O)cc3)C(=O)N(Cc3cccc4c(C(=O)C5CC5)cn(CC)c34)C[C@@H]2N1C(=O)NCc1ccccc1` [Compound C2] here?
Answer: > 100%

Question: Which inhibition in vivo at 25 mg/kg ([1]; dose 25 mg/kg) does the source give for `C=CCN1CC(=O)N2[C@@H](Cc3ccc(OP(=O)(O)O)cc3)C(=O)N(Cc3cccc4c(C(C)=O)cn(CCC)c34)C[C@@H]2N1C(=O)NCc1ccccc1` [Compound A3] here?
Answer: > 100%

Question: For `C=CCN1CC(=O)N2[C@@H](Cc3ccc(OP(=O)(O)O)cc3)C(=O)N(Cc3cccc4c(C(C)=O)cn(C)c34)C[C@@H]2N1C(=O)NCc1ccccc1` [Compound A2], which inhibition in vivo at 25 mg/kg ([1]; dose 25 mg/kg) is on record?
Answer: > 100%
